In the CheMixHub viscosity set:
Where “and” joins values, the source holds several entries; their conditions need not be identical. Equal values may be shown once.

Assays:
[1] = xn = mol fraction of the nth substance listed

CCCCCCCCO
viscosity
Conditions | 293.15 K | 298 K | 298.15 K | 303.15 K | 308 K | 308.15 K | 313 K | 313.15 K | 318.15 K | 323.15 K
100 kPa | 9.045 mPa·s and 9.2 mPa·s and 8.98 mPa·s | 7.614 mPa·s | 7.546 mPa·s and 7.67 mPa·s and 7.56 mPa·s | 6.337 mPa·s and 6.35 mPa·s | – | – | – | 4.564 mPa·s and 4.61 mPa·s and 4.585 mPa·s | – | 3.365 mPa·s and 3.38 mPa·s
101 kPa | 8.309 mPa·s and 9.185 mPa·s | – | 7.33 mPa·s and 7.3 mPa·s | – | 5.228 mPa·s | – | 4.464 mPa·s | 4.199 mPa·s and 4.691 mPa·s and 4.58 mPa·s | – | 3.464 mPa·s and 3.369 mPa·s
101.3 kPa | 9.273 mPa·s and 9.183 mPa·s | – | 7.598 mPa·s and 7.84 mPa·s | 6.102 mPa·s and 6.42 mPa·s | – | 5.403 mPa·s | – | 4.413 mPa·s and 4.661 mPa·s | 4.051 mPa·s and 3.701 mPa·s | 2.84 mPa·s
101.33 kPa | – | – | – | – | – | 5.352 mPa·s | – | – | – | 3.361 mPa·s and 3.361 mPa·s

C=Cc1ccccc1
101 kPa
Conditions | viscosity
298.15 K | 1.07 mPa·s and 0.695 mPa·s
308.15 K | 0.618 mPa·s
313.15 K | 0.573 mPa·s

BrC(Br)C(Br)Br
101 kPa
Conditions | viscosity [mPa·s]
298.08 K | 9.687
308.11 K | 7.313
313.11 K | 6.406

NCCOCCO
101.33 kPa
Conditions | viscosity [mPa·s]
298.15 K | 26.66
313.15 K | 13.43
323.15 K | 9.155

CC#N
Conditions | viscosity
293.15 K, 101.32 kPa | 0.3579 mPa·s
293.15 K, 101.33 kPa | 0.408 mPa·s and 0.383 mPa·s
297.92 K, 101 kPa | 0.3538 mPa·s
298.15 K, 100 kPa | 0.3479 mPa·s and 0.3462 mPa·s and 0.338 mPa·s
298.15 K, 101.3 kPa | 0.335 mPa·s and 0.346 mPa·s
298.15 K, 101.33 kPa | 0.39 mPa·s and 0.361 mPa·s and 0.345 mPa·s
301.67 K, 101 kPa | 0.3418 mPa·s
303 K, 100 kPa | 0.3485 mPa·s
303.15 K, 100 kPa | 0.3332 mPa·s and 0.3307 mPa·s
303.15 K, 101.3 kPa | 0.326 mPa·s
303.15 K, 101.33 kPa | 0.371 mPa·s and 0.333 mPa·s
303.61 K, 101 kPa | 0.3353 mPa·s
305.61 K, 101 kPa | 0.3294 mPa·s
308 K, 100 kPa | 0.3285 mPa·s
308 K, 101 kPa | 0.3205 mPa·s
308.15 K, 100 kPa | 0.3196 mPa·s and 0.3165 mPa·s
308.15 K, 101.3 kPa | 0.314 mPa·s and 0.306 mPa·s
308.15 K, 101.33 kPa | 0.319 mPa·s
308.76 K, 101 kPa | 0.3201 mPa·s
311.67 K, 101 kPa | 0.3112 mPa·s
313 K, 100 kPa | 0.3102 mPa·s
313.15 K, 100 kPa | 0.3071 mPa·s and 0.298 mPa·s
313.15 K, 101.3 kPa | 0.291 mPa·s
313.15 K, 101.32 kPa | 0.2974 mPa·s
313.15 K, 101.33 kPa | 0.337 mPa·s
318 K, 101 kPa | 0.2908 mPa·s
323.15 K, 100 kPa | 0.2849 mPa·s and 0.2624 mPa·s
323.15 K, 101.32 kPa | 0.2729 mPa·s
323.15 K, 101.33 kPa | 0.309 mPa·s

CC1CCCC(O)C1 (configuration not stated)
Conditions | viscosity [mPa·s]
293.15 K, 101 kPa | 22.8

O=S(=O)([N-]S(=O)(=O)C(F)(F)F)C(F)(F)F.OCCNCCO.[Li+]
101 kPa
Conditions | viscosity [mPa·s]
313.15 K | 1775
318.15 K | 1235
323.15 K | 895

CCn1cc[n+](C)c1.O=S(=O)([N-]S(=O)(=O)C(F)(F)F)C(F)(F)F
Conditions | viscosity
293.15 K, 100 kPa | 41.6 mPa·s and 39.2 mPa·s
297.55 K, 101 kPa | 36.3 mPa·s
298 K, 100 kPa | 29.67 mPa·s
298.15 K, 100 kPa | 33.9 mPa·s and 32.55 mPa·s
298.15 K, 101 kPa | 30.72 mPa·s and 32.3 mPa·s
298.15 K, 101.3 kPa | 32.42 mPa·s
303 K, 100 kPa | 24.82 mPa·s
303.15 K, 100 kPa | 27.68 mPa·s and 27.4 mPa·s
303.15 K, 101.3 kPa | 28.6 mPa·s
308 K, 100 kPa | 20.99 mPa·s
308.15 K, 101.3 kPa | 23.19 mPa·s
313 K, 100 kPa | 17.97 mPa·s
313.15 K, 100 kPa | 20.16 mPa·s and 19.1 mPa·s and 20.1 mPa·s
313.15 K, 101 kPa | 19.9 mPa·s and 19.26 mPa·s
313.15 K, 101.3 kPa | 19.94 mPa·s
318 K, 100 kPa | 15.57 mPa·s
318.15 K, 101.3 kPa | 17.37 mPa·s
323 K, 100 kPa | 13.28 mPa·s
323.15 K, 100 kPa | 15.34 mPa·s and 14.4 mPa·s and 15.3 mPa·s
323.15 K, 101.3 kPa | 15.34 mPa·s

CCC(C)(C)OC
100 kPa
Conditions | viscosity [mPa·s]
293.15 K | 0.439
303.15 K | 0.415
313.15 K | 0.369
323.15 K | 0.335

CC(=O)c1ccc(Cl)cc1
303.15 K
Conditions | viscosity [mPa·s]
100 kPa | 2.353
101 kPa | 2.353

CC12CC3CC(C1)CC(C)(C3)C2
100 kPa
Conditions | viscosity
293.15 K | 3.779 mPa·s and 3.778 mPa·s
298.15 K | 3.371 mPa·s and 3.365 mPa·s
303.15 K | 3.027 mPa·s and 3.017 mPa·s
308.15 K | 2.747 mPa·s
313.15 K | 2.475 mPa·s
318.15 K | 2.262 mPa·s
323.15 K | 2.05 mPa·s

CC(C)(C)N
viscosity
Conditions | 298 K | 298.15 K | 303 K | 303.15 K | 308 K | 308.15 K | 313.15 K
101 kPa | 0.434 mPa·s | 0.4394 mPa·s and 0.439 mPa·s | 0.403 mPa·s | 0.4363 mPa·s and 0.4443 mPa·s | 0.375 mPa·s | 0.4126 mPa·s and 0.4126 mPa·s | –
101.33 kPa | – | 0.4394 mPa·s | – | 0.4088 mPa·s | – | 0.3803 mPa·s | 0.3558 mPa·s

CC12CC3CC(C1)CC(C)(C3)C2 + CCCCCCCCCCC
viscosity [mPa·s], [1], 100 kPa
Conditions | x1 = 0.1005 | x1 = 0.2002 | x1 = 0.2999 | x1 = 0.4004 | x1 = 0.4999 | x1 = 0.5996 | x1 = 0.7003 | x1 = 0.8 | x1 = 0.8999
293.15 K | 1.278 | 1.376 | 1.491 | 1.628 | 1.805 | 2.024 | 2.319 | 2.683 | 3.141
298.15 K | 1.173 | 1.273 | 1.385 | 1.492 | 1.639 | 1.831 | 2.087 | 2.418 | 2.813
303.15 K | 1.083 | 1.162 | 1.25 | 1.37 | 1.501 | 1.676 | 1.901 | 2.19 | 2.531
308.15 K | 1.003 | 1.071 | 1.153 | 1.259 | 1.376 | 1.53 | 1.735 | 1.98 | 2.299
313.15 K | 0.936 | 0.998 | 1.074 | 1.166 | 1.272 | 1.409 | 1.589 | 1.817 | 2.083
318.15 K | 0.872 | 0.939 | 1.006 | 1.084 | 1.172 | 1.297 | 1.461 | 1.665 | 1.911
323.15 K | 0.815 | 0.871 | 0.94 | 1.008 | 1.097 | 1.207 | 1.348 | 1.532 | 1.744

CCCCCCCCO + C1CCCCC1
[1]
Conditions | viscosity [mPa·s]
293.15 K, 100 kPa, x2 = 0.0821 | 7.85
293.15 K, 100 kPa, x2 = 0.1596 | 6.77
293.15 K, 100 kPa, x2 = 0.2413 | 5.78
293.15 K, 100 kPa, x2 = 0.3502 | 4.63
293.15 K, 100 kPa, x2 = 0.4402 | 3.78
293.15 K, 100 kPa, x2 = 0.5611 | 2.83
293.15 K, 100 kPa, x2 = 0.6512 | 2.26
293.15 K, 100 kPa, x2 = 0.7501 | 1.79
293.15 K, 100 kPa, x2 = 0.8503 | 1.38
293.15 K, 100 kPa, x2 = 0.9396 | 1.11
303.15 K, 100 kPa, x2 = 0.0821 | 5.56
303.15 K, 100 kPa, x2 = 0.1596 | 4.83
303.15 K, 100 kPa, x2 = 0.2413 | 4.15
303.15 K, 100 kPa, x2 = 0.3502 | 3.33
303.15 K, 100 kPa, x2 = 0.4402 | 2.73
303.15 K, 100 kPa, x2 = 0.5611 | 2.08
303.15 K, 100 kPa, x2 = 0.6512 | 1.72
303.15 K, 100 kPa, x2 = 0.7501 | 1.4
303.15 K, 100 kPa, x2 = 0.8503 | 1.12
303.15 K, 100 kPa, x2 = 0.9396 | 0.92
303.15 K, 101.33 kPa, x1 = 0.1206 | 1.057
303.15 K, 101.33 kPa, x1 = 0.221 | 1.301
303.15 K, 101.33 kPa, x1 = 0.2975 | 1.52
303.15 K, 101.33 kPa, x1 = 0.3517 | 1.697
303.15 K, 101.33 kPa, x1 = 0.4355 | 2.023
303.15 K, 101.33 kPa, x1 = 0.5414 | 2.518
303.15 K, 101.33 kPa, x1 = 0.608 | 2.869
303.15 K, 101.33 kPa, x1 = 0.755 | 3.829
303.15 K, 101.33 kPa, x1 = 0.8637 | 4.746
308 K, 101 kPa, x2 = 0.1494 | 4.134
308 K, 101 kPa, x2 = 0.2768 | 3.348
308 K, 101 kPa, x2 = 0.3962 | 2.659
308 K, 101 kPa, x2 = 0.5076 | 2.09
308 K, 101 kPa, x2 = 0.6146 | 1.64
308 K, 101 kPa, x2 = 0.7054 | 1.36
308 K, 101 kPa, x2 = 0.7911 | 1.132
308 K, 101 kPa, x2 = 0.8587 | 0.96
308 K, 101 kPa, x2 = 0.9354 | 0.828
313.15 K, 100 kPa, x2 = 0.0821 | 4.06
313.15 K, 100 kPa, x2 = 0.1596 | 3.56
313.15 K, 100 kPa, x2 = 0.2413 | 3.09
313.15 K, 100 kPa, x2 = 0.3502 | 2.52
313.15 K, 100 kPa, x2 = 0.4402 | 2.1
313.15 K, 100 kPa, x2 = 0.5611 | 1.65
313.15 K, 100 kPa, x2 = 0.6512 | 1.37
313.15 K, 100 kPa, x2 = 0.7501 | 1.14
313.15 K, 100 kPa, x2 = 0.8503 | 0.9
313.15 K, 100 kPa, x2 = 0.9396 | 0.78
323.15 K, 100 kPa, x2 = 0.0821 | 3.03
323.15 K, 100 kPa, x2 = 0.1596 | 2.65
323.15 K, 100 kPa, x2 = 0.2413 | 2.31
323.15 K, 100 kPa, x2 = 0.3502 | 1.93
323.15 K, 100 kPa, x2 = 0.4402 | 1.66
323.15 K, 100 kPa, x2 = 0.5611 | 1.34
323.15 K, 100 kPa, x2 = 0.6512 | 1.13
323.15 K, 100 kPa, x2 = 0.7501 | 0.95
323.15 K, 100 kPa, x2 = 0.8503 | 0.77
323.15 K, 100 kPa, x2 = 0.9396 | 0.66
